# According to US9034398B2, “Traditional Chinese drug comprising Danshen extracts and Sanqi extracts and use thereof” (TASLY Pharmaceutical Group Co., LTD., priority 2009, dated 2015):
# Tested on: rat myocardial I/R model
# Assay: Myocardial infarction area by TTC staining
# Assay type: in vivo
# Settings: for infarction region on TTC-stained heart slices, in contrast to I/R group / inhibition of the increase of the myocardial infarction area percentage caused by I/R: 5 mg/kg BW/h intravenous drip, 60 min after reperfusion, FIG. 6A
# Description: The rats were anesthetized by intramuscularly injecting 20 wt % urethane (1.25 g/kg) and fixed in the supine position. Neck skin was incised and anterior cervical muscles were separated to expose the trachea. Tracheal intubation was performed. Another end of the intubation was attached to a Small Animal Ventilator (ALC-V8, Shanghai Aoteshai Biology Science and Technology Limited Company, Shanghai, China) so as to carry out pressure breathing under the following conditions: a respiratory ratio of 1:1, a respiratory frequency of 75 times/min and a tidal volume of 12 mL/kg. The rectal temperature, measured with YSI REF 401 (Yellow Spring, Ohio, USA), was maintained at 37 37.5° C. by using a thermal blanket. The chest was sterilized and opened at the intercostal space between 2nd 4th ribs near the left and right sternal border to expose the heart. The 3⁄8 curved needle threaded with 3-0 suture was used to pass through the site at 1 2 mm below the juncture of the pulmonary artery cone and the left atrial appendage. The suture was ligated. A polyethylene tubule was placed between the silk suture and myocardial tissue, the silk suture was […] to cause ischemia. Ligature was released 30 min later to establish an I/R model. Danshensu+I/R group (DLA+I/R group): a Danshensu aqueous solution (in normal saline, 1.25 mg/ml) was administrated at a dosage of 5 mg/kg BW/h by intravenous drip 20 min before the experiment and continued until the end of the entire experiment. Notoginsenoside R1+I/R group (R1+I/R group): a Notoginsenoside R1 aqueous solution (in normal saline, 1.25 mg/ml) was administrated at a dosage of 5 mg/kg BW/h by intravenous drip 20 min before the experiment and continued until the end of the entire experiment. Danshensu:R1(4:1)+I/R group (DR(4:1)+I/R group): an aqueous solution of Danshensu and Notoginsenoside R1 at a weight ratio of 4:1, dissolved in normal saline (1.25 mg/ml, namely, in the solution, the concentration of Danshensu is 1 mg/ml and the concentration of Notoginsenoside R1 is 0.25 mg/ml), was administrated at a dosage of 5 mg/kg BW/h (namely, in the total dosage, the dosage of Danshensu is 4 mg/kg BW/h and the dosage of Notoginsenoside R1 is 1 mg/kg BW/h) by intravenous drip 20 min before the experiment and continued until the end of the entire experiment. Danshensu:R1 (1:1)+I/R group (DR(1:1)+IR group): an aqueous solution of Danshensu and Notoginsenoside R1 at a weight ratio of 1:1, dissolved in normal saline (1.25 mg/ml, namely, in the solution, the concentration of Danshensu is 0.625 mg/ml and the concentration of Notoginsenoside R1 is 0.625 mg/ml), was administrated at a dosage of 5 mg/kg BW/h (namely, in the total dosage, the dosage of Danshensu is 2.5 mg/kg BW/h and the dosage of Notoginsenoside R1 is 2.5 mg/kg BW/h) by intravenous drip 20 min before the experiment and continued until the end of the entire experiment. Danshensu:R1 (0.25:1)+I/R group (DR(0.25:1)+IR group): an aqueous solution of Danshensu and Notoginsenoside R1 at a weight ratio of 0.25:1, dissolved in normal saline (1.25 mg/ml, namely, in the solution, the concentration of Danshensu is 0.25 mg/ml and the concentration of Notoginsenoside R1 is 1.0 mg/ml), was administrated at a dosage of 5 mg/kg BW/h (namely, in the total dosage, the dosage of Danshensu is 1 mg/kg BW/h and the dosage of Notoginsenoside R1 is 4 mg/kg BW/h) by intravenous drip 20 min before the experiment and continued until the end of the entire experiment. […]
SMILES,"infarction region on TTC-stained heart slices, in contrast to I/R group",inhibition of the increase of the myocardial infarction area percentage caused by I/R,"reduction of the percentage of the myocardial infarction area after I/R (summary) (rats, summary statement of the description)"
"O=C(O)C(O)Cc1ccc(O)c(O)c1 (centres unmarked) [Danshensu, (3,4-dihydroxyphenyl)lactic acid]",decreased obviously,significantly suppress,can reduce
CC(C)=CCC[C@](C)(O[C@@H]1O[C@H](CO)[C@@H](O)[C@H](O)[C@H]1O)[C@H]1CC[C@]2(C)[C@@H]1[C@H](O)C[C@@H]1[C@@]3(C)CC[C@H](O)C(C)(C)[C@@H]3[C@@H](O[C@@H]3O[C@H](CO)[C@@H](O)[C@H](O)[C@H]3O[C@@H]3OC[C@@H](O)[C@H](O)[C@H]3O)C[C@]12C [Notoginsenoside R1],decreased slightly,has not significantly inhibited,–
